Consider one molecule from patent publication US11351209B2 (priority 2016, dated 2022).

Structures are written as SMILES. “Also recorded” adds a separate entry of the source.

For one experiment, the system named is orthotopic 4T1 tumours. Nature of the experiment: Efficacy study, oral IC87114 and intravenous VVL15, orthotopic 4T1 tumours. The following applies: 4T1 orthotopic; IC87114 75 mg kg^−1 oral gavage three hours before intravenous 1×10^8 PFU VVL15 (Group D), days 12, 15, 17; vs all other groups. Type of experiment: in vivo, BALB/c mice.
The test system of a further experiment is CT26 flank tumours. Nature of the experiment: Efficacy study, oral IC87114 and intravenous VVL15, CT26 flank tumours. The following applies: IC87114 50 mg kg^−1 oral gavage three hours before intravenous 1×10^8 PFU VVL15 (Group D), days 8, 11, 13, vs all other groups. Type of experiment: in vivo, BALB/c mice.

In the case of `Cc1ccccc1-n1c(Cn2cnc3c(N)ncnc32)nc2cccc(C)c2c1=O` [IC87114, 2-[(6-amino-9H-purin-9-yl)methyl]-5-methyl-3-(2-methylphenyl)-4(3H)-quinazolinone], the tumour burden entry with orthotopic 4T1 tumours and in the experiment with CT26 flank tumours was “significantly reduces the tumour burden; also recorded: significantly less tumour burden; also recorded: reduced tumour burden” throughout.
